According to patent US5504212A, “Inhibitors of farnesyl-protein transferase” (Merck & Co., Inc., priority 1992, dated 1996):

Molecular target: recombinant human farnesyl transferase (Homo sapiens, UniProt P49354+P49356)
Assay: In vitro inhibition of ras farnesyl transferase
Type: biochemical
Settings: read-out: ID50, Inhibition of RAS farnesylation (concentration which gives 50% inhibition of FTase)
Protocol: In vitro inhibition of ras farnesyl transferase
The assay was conducted as described in Pompliano, et. al., Biochemistry 31, 3800 (1992) with the exception of utilizing recombinant human farnesyl transferase in place of the partially purified bovine enzyme described therein.

IC50 [nM] | Structure (SMILES)
3.5 | CC[C@H](C)[C@@H](/C=C/[C@H](C(=O)N[C@@H](CCO)C(=O)O)C(C)C)NC[C@@H](N)CS [5(S)-2(R)-amino-3-mercaptopropyl-amino!-6(S)-methyl-2(R)-i-propyl-3,4-E-octenoyl-homoserine]
20 | CC[C@H](C)[C@@H](/C=C/[C@H](C(=O)N[C@@H](CCSC)C(=O)O)C(C)C)NC[C@@H](N)CS [5(S)-2(R)-amino-3-mercaptopropylamino!-6(S)-methyl-2(R)-i-propyl-3,4-E-octenoyl-methionine]
5 | CC(C)[C@H](/C=C/[C@@H](NC[C@@H](N)CS)C(C)C)C(=O)N[C@@H](CCO)C(=O)O [5(S)-2(R)-amino-3-mercaptopropylamino!-6-methyl-2(R)-i-propyl-3,4-E-heptenoyl-homoserine]
2.5 | CCCC[C@H](/C=C/[C@@H](NC[C@@H](N)CS)[C@@H](C)CC)C(=O)N[C@@H](CCSC)C(=O)O [5(S)-2(R)-amino-3-mercaptopropyl-amino!-6(S)-methyl-2(R)-n-butyl-3,4-E-octenoyl-methionine]
1.5 | CCCC[C@H](/C=C/[C@@H](NC[C@@H](N)CS)[C@@H](C)CC)C(=O)N[C@@H](CCO)C(=O)O [5(S)-2(R)-amino-3-mercaptopropyl-amino!-6(S)-methyl-2(R)-n-butyl-3,4-E-octenoyl-homoserine]
4 | CCC[C@H](/C=C/[C@@H](NC[C@@H](N)CS)[C@@H](C)CC)C(=O)N[C@@H](CCO)C(=O)O [5(S)-2(R)-amino-3-mercaptopropylamino!-6(S)-methyl-2(R)-n-propyl-3,4-E-octenoyl-homoserine]
1.9 | CC[C@H](C)[C@@H](/C=C/[C@@H](Cc1ccccc1)C(=O)N[C@@H](CCSC)C(=O)O)NC[C@@H](N)CS [5(S)-2(R)-amino-3-mercaptopropylamino!-6(S)-methyl-2(R)-benzyl-3,4-E-octenoyl-methionine]

System: Ras farnesylation in the v-ras cell line
Assay: In vivo ras farnesylation assay (v-ras cell line)
Type: cell-based
Settings: v-ras cells; 4 h pretreatment at 37° C., then 20 h labelling; read-out: IC50, Inhibition of Ras Farnesylation in the v-ras cell line
Protocol: In vivo ras farnesylation assay
The cell line used in this assay was the v-ras line, which expressed vital Ha-ras p21. The assay was performed essentially as described in DeClue, J. E. et. al., Cancer Research 51, 712-717, (1991). Cells in 10 cm dishes at 50-75% confluency were treated with the test compound (final concentration of solvent, methanol or dimethyl sulfoxide, was 0.1%). After 4 hours at 37° C., the cells were labelled in 3 ml methionine-free DMEM supplemeted with 10% regular DMEM, 2% fetal bovine serum and 400 μCi ^35 S!methionine (1000 Ci/mmol). After an additional 20 hours, the cells were lysed in 1 ml lysis buffer (1% NP40/20 mMHEPES, pH 7.5/5 mM MgCl2 /1 mM DTT/10 μg/ml aprotinen/2 μg/ml leupeptin/2 μg/ml antipain/0.5 mM PMSF) and the lysates cleared by centrifugation at 100,000×g for 45 min. Aliqouts of lysates containing equal numbers of acid-precipitable counts were bought to 1 ml with IP buffer (lysis buffer lacking DTT) and immunoprecipitated with the ras-specific monoclonal antibody Y13-259 (Furth, M. E. et. al., J. Virol. 43, 294-304, (1982)). Following a 2 hour antibody incubation at 4° C., 200 μl of a 25% suspension of protein A-Sepharose coated with rabbit anti rat IgG was added for 45 min. The immunoprecipitates were washed four times with IP was buffer ([…] HEPES, pH 7.5/1 mM EDTA/ 1% Triton X-100.0.5% deoxycholate/0.1%/SDS/0.1M NaCl) boiled in SDS-PAGE sample buffer and loaded on 13% acrylamide gels. When the dye front reached the bottom, the gel was fixed, soaked in Enlightening, dried and autoradiographed. The intensities of the bands corresponding to farnesylated and nonfarnesylated ras proteins were compared to determine the percent inhibition of farnesyl transfer to protein.

Structure (SMILES) | IC50 [nM]
CCC[C@H](/C=C/[C@@H](NC[C@@H](N)CS)[C@@H](C)CC)C(=O)N[C@H]1CCOC1=O [5(S)-2(R)-amino-3-mercaptopropylamino!-6(S)-methyl-2(R)-n-propyl-3,4-E-octenoyl-homoserine lactone] | 5000
CC[C@H](C)[C@@H](/C=C/[C@H](C(=O)N[C@@H](CCSC)C(=O)OC)C(C)C)NC[C@@H](N)CS [5(S)-2(R)-amino-3-mercaptopropylamino!-6(S)-methyl-2(R)-i-propyl-3,4-E-octenoyl-methionine, methyl ester] | 100
CCCC[C@H](/C=C/[C@@H](NC[C@@H](N)CS)[C@@H](C)CC)C(=O)N[C@@H](CCSC)C(=O)OC [5(S)-2(R)-amino-3-mercaptopropylamino!-6(S)-methyl-2(R)-n-butyl-3,4-E-octenoyl-methionine, methyl ester] | 1000
CC[C@H](C)[C@@H](/C=C/[C@H](C(=O)N[C@H]1CCOC1=O)C(C)C)NC[C@@H](N)CS [5(S)-2(R)-amino-3-mercaptopropylamino!-6(S)-methyl-2(R)-i-propyl-3,4-E-octenoyl-homoserine lactone] | 1000 to 2500
CC[C@H](C)[C@@H](/C=C/[C@@H](Cc1ccccc1)C(=O)N[C@@H](CCSC)C(=O)OC)NC[C@@H](N)CS [5(S)-2(R)-amino-3-mercaptopropylamino!-6(S)-methyl-2(R)-benzyl-3,4-E-octenoyl-methionine, methyl ester] | 1000
CC(C)[C@H](/C=C/[C@@H](NC[C@@H](N)CS)C(C)C)C(=O)N[C@H]1CCOC1=O [5(S)-2(R)-amino-3-mercaptopropylamino!-6-methyl-2(R)-i-propyl-3,4-E-heptenoyl-homoserine lactone] | 1000
CC[C@H](C)[C@@H](/C=C/[C@@H](Cc1ccccc1)C(=O)N[C@H]1CCOC1=O)NC[C@@H](N)CS [5(S)-2(R)-amino-3-mercaptopropylamino!-6(S)-methyl-2(R)-benzyl-3,4-E-octenoyl-homoserine lactone] | 5000 to 10000

System: EMG-CoA reductase
Assay: not given
Settings: cited from earlier work

Structure (SMILES) | inhibition of EMG-CoA reductase
CC[C@H](C)C(=O)O[C@H]1CCC=C2C=C[C@H](C)[C@H](CC[C@@H]3C[C@@H](O)CC(=O)O3)[C@H]21 [compactin] | inhibit EMG-CoA reductase
CC[C@H](C)C(=O)O[C@H]1C[C@@H](C)C=C2C=C[C@H](C)[C@H](CC[C@@H]3C[C@@H](O)CC(=O)O3)[C@H]21 [lovastatin] | inhibit EMG-CoA reductase
